Laboratory results published in the supplement of paper PMC11451515.

Key:
Conditions in all cases: 48 h
SEM cells [1] = assay: cell viability relative to DMSO control; higher = less cytotoxic
Summary of the method: (§1)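 Library compounds in DMSO were pin-dosed in an 11-point threefold series (47 μM to 0.79 nM) onto leukemia cells in 1536-well plates (5 μl). Plates held 500 cells/well of NOMO1 or SEM or 1000 cells/well of P12-Ichikawa, each adapted for at least four passages in each medium. Luminescence was read with CellTiter-Glo One after 48 h at 37°C. Viability means the per-plate percentage relative to DMSO wells, using cell-free wells as background.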

NOMO1 [2] = assay: as above
Summary of the method: as §1

P12-Ichikawa [3] = assay: as above
Summary of the method: as §1

SEM cells [4] = assay: AUC of viability dose-response curve (% viability x log10 dose units); higher = less sensitive
Summary of the method: (§2)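 Area under the curve was integrated by trapezoidal rule from a log-logistic fit of normalised viability, with curves exceeding full viability scaled and quality-control failures removed. The fit had four parameters over log10 doses. Viability came from CellTiter-Glo One luminescence, normalised per plate to DMSO and cell-free wells, after leukemia cells adapted to each medium (500 or 1000 cells/well, 1536-well plates) were exposed to library compounds in DMSO for 48 h at 37°C. The 11 threefold doses ran from 47 μM to 0.79 nM.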

NOMO1 [5] = assay: as above
Summary of the method: as §2

P12-Ichikawa [6] = assay: as above
Summary of the method: as §2

CCCCCCCCCC(=O)N[C@@H](Cc1c[nH]c2ccccc12)C(=O)N[C@H](CC(N)=O)C(=O)N[C@@H](CC(=O)O)C(=O)N[C@@H]1C(=O)NCC(=O)N[C@@H](CCCN)C(=O)N[C@@H](CC(=O)O)C(=O)N[C@H](C)C(=O)N[C@@H](CC(=O)O)C(=O)NCC(=O)N[C@H](CO)C(=O)N[C@@H]([C@@H](C)CC(=O)O)C(=O)N[C@@H](CC(=O)c2ccccc2N)C(=O)O[C@@H]1C
cell viability [%]
Conditions	NOMO1 [2]	P12-Ichikawa [3]	SEM cells [1]
HPLM + 10% dialyzed FBS, 0.000781 µM	105	116	81.6
HPLM + 10% dialyzed FBS, 0.00234 µM	118	122	101
HPLM + 10% dialyzed FBS, 0.00702 µM	118	112	98.3
HPLM + 10% dialyzed FBS, 0.0211 µM	132	123	108
HPLM + 10% dialyzed FBS, 0.0632 µM	108	121	93.4
HPLM + 10% dialyzed FBS, 0.19 µM	123	122	108
HPLM + 10% dialyzed FBS, 0.569 µM	119	126	121
HPLM + 10% dialyzed FBS, 1.71 µM	133	123	114
HPLM + 10% dialyzed FBS, 5.12 µM	149	122	116
HPLM + 10% dialyzed FBS, 15.4 µM	106	124	107
HPLM + 10% dialyzed FBS, 46.1 µM	114	129	101
RPMI 5 mM glucose + 10% FBS, 0.000781 µM	98.9	106	103
RPMI 5 mM glucose + 10% FBS, 0.00234 µM	112	111	103
RPMI 5 mM glucose + 10% FBS, 0.00702 µM	102	113	123
RPMI 5 mM glucose + 10% FBS, 0.0211 µM	122	121	114
RPMI 5 mM glucose + 10% FBS, 0.0632 µM	111	131	105
RPMI 5 mM glucose + 10% FBS, 0.19 µM	104	127	120
RPMI 5 mM glucose + 10% FBS, 0.569 µM	121	126	121
RPMI 5 mM glucose + 10% FBS, 1.71 µM	124	129	102
RPMI 5 mM glucose + 10% FBS, 5.12 µM	108	125	116
RPMI 5 mM glucose + 10% FBS, 15.4 µM	117	125	119
RPMI 5 mM glucose + 10% FBS, 46.1 µM	111	4.51	120
RPMI 5 mM glucose + 10% dialyzed FBS, 0.000781 µM	103	106	102
RPMI 5 mM glucose + 10% dialyzed FBS, 0.00234 µM	116	111	105
RPMI 5 mM glucose + 10% dialyzed FBS, 0.00702 µM	103	110	94.8
RPMI 5 mM glucose + 10% dialyzed FBS, 0.0211 µM	111	113	103
RPMI 5 mM glucose + 10% dialyzed FBS, 0.0632 µM	125	133	123
RPMI 5 mM glucose + 10% dialyzed FBS, 0.19 µM	106	116	104
RPMI 5 mM glucose + 10% dialyzed FBS, 0.569 µM	141	117	117
RPMI 5 mM glucose + 10% dialyzed FBS, 1.71 µM	131	126	103
RPMI 5 mM glucose + 10% dialyzed FBS, 5.12 µM	102	121	109
RPMI 5 mM glucose + 10% dialyzed FBS, 15.4 µM	118	131	105
RPMI 5 mM glucose + 10% dialyzed FBS, 46.1 µM	80.3	115	102

AUC of viability dose-response curve
Conditions	NOMO1 [5]	P12-Ichikawa [6]	SEM cells [4]
HPLM + 10% dialyzed FBS	459	459	458
RPMI 5 mM glucose + 10% FBS	466	454	455
RPMI 5 mM glucose + 10% dialyzed FBS	469	460	469

COc1cc2nc(-c3cc(F)ccc3O)nc(N[C@@H]3CNC[C@H]3C(C)(C)O)c2cc1OC
cell viability [%]
Conditions	NOMO1 [2]	P12-Ichikawa [3]	SEM cells [1]
HPLM + 10% dialyzed FBS, 0.000781 µM	111	104	57.3
HPLM + 10% dialyzed FBS, 0.00234 µM	115	104	96.4
HPLM + 10% dialyzed FBS, 0.00702 µM	108	106	90.5
HPLM + 10% dialyzed FBS, 0.0211 µM	128	110	97.4
HPLM + 10% dialyzed FBS, 0.0632 µM	93.5	110	89.5
HPLM + 10% dialyzed FBS, 0.19 µM	122	109	59.6
HPLM + 10% dialyzed FBS, 0.569 µM	124	114	45.6
HPLM + 10% dialyzed FBS, 1.71 µM	109	120	37.2
HPLM + 10% dialyzed FBS, 5.12 µM	109	80.5	28.3
HPLM + 10% dialyzed FBS, 15.4 µM	89.4	76.6	16.1
HPLM + 10% dialyzed FBS, 46.1 µM	38.4	56.5	7.01
RPMI 5 mM glucose + 10% FBS, 0.000781 µM	107	108	59.9
RPMI 5 mM glucose + 10% FBS, 0.00234 µM	105	104	101
RPMI 5 mM glucose + 10% FBS, 0.00702 µM	108	111	99.6
RPMI 5 mM glucose + 10% FBS, 0.0211 µM	103	111	94.6
RPMI 5 mM glucose + 10% FBS, 0.0632 µM	101	118	90.4
RPMI 5 mM glucose + 10% FBS, 0.19 µM	115	128	62.3
RPMI 5 mM glucose + 10% FBS, 0.569 µM	109	119	54.6
RPMI 5 mM glucose + 10% FBS, 1.71 µM	122	129	35.7
RPMI 5 mM glucose + 10% FBS, 5.12 µM	114	83.5	25.6
RPMI 5 mM glucose + 10% FBS, 15.4 µM	106	67.8	14.5
RPMI 5 mM glucose + 10% FBS, 46.1 µM	49.4	44.3	5.78
RPMI 5 mM glucose + 10% dialyzed FBS, 0.000781 µM	101	116	46.9
RPMI 5 mM glucose + 10% dialyzed FBS, 0.00234 µM	97.8	123	94.4
RPMI 5 mM glucose + 10% dialyzed FBS, 0.00702 µM	100	117	80.5
RPMI 5 mM glucose + 10% dialyzed FBS, 0.0211 µM	118	113	86.5
RPMI 5 mM glucose + 10% dialyzed FBS, 0.0632 µM	106	121	64
RPMI 5 mM glucose + 10% dialyzed FBS, 0.19 µM	112	116	45.2
RPMI 5 mM glucose + 10% dialyzed FBS, 0.569 µM	112	124	34.6
RPMI 5 mM glucose + 10% dialyzed FBS, 1.71 µM	96.6	115	30.6
RPMI 5 mM glucose + 10% dialyzed FBS, 5.12 µM	99.6	69.6	15.8
RPMI 5 mM glucose + 10% dialyzed FBS, 15.4 µM	88.4	48.5	14.3
RPMI 5 mM glucose + 10% dialyzed FBS, 46.1 µM	53.7	37.5	6.75

AUC of viability dose-response curve
Conditions	NOMO1 [5]	P12-Ichikawa [6]	SEM cells [4]
HPLM + 10% dialyzed FBS	449	436	274
RPMI 5 mM glucose + 10% FBS	463	429	283
RPMI 5 mM glucose + 10% dialyzed FBS	455	410	227

O=C(O)COCCN1CCN(C(c2ccccc2)c2ccc(Cl)cc2)CC1 (configuration not stated)
cell viability [%], SEM cells [1]
Conditions	HPLM + 10% dialyzed FBS	RPMI 5 mM glucose + 10% FBS
0.000781 µM	126	117
0.00234 µM	125	118
0.00702 µM	117	113
0.0211 µM	130	108
0.0632 µM	140	116
0.19 µM	132	95.4
0.569 µM	128	119
1.71 µM	123	91
5.12 µM	111	113
15.4 µM	119	112
46.1 µM	122	102

AUC of viability dose-response curve
Conditions	NOMO1 [5]	P12-Ichikawa [6]	SEM cells [4]
HPLM + 10% dialyzed FBS	463	461	465
RPMI 5 mM glucose + 10% FBS	459	461	453
RPMI 5 mM glucose + 10% dialyzed FBS	451	455	469
